# Data reported in patent publication US11845809B2, “Maleate of SCY-635 and uses thereof in medicine” (priority 2018, dated 2023).
# Read-outs that look alike come from different tables or passages of the source.
# Columns and labels:
# [1] = type: physicochemical; conditions: for Final pH of supernatant: water, RT
# Text: (§1) Crystalline maleate was recommended as a leading salt and further evaluated by kinetic solubility and physicochemical stability.
# [2] = type: physicochemical; conditions: for Final pH of supernatant: FaSSIF, RT
# Text: as §1
# physchem = type: physicochemical; conditions: fassif, thermodynamic from solid, Solubility (S)
# hepatitis C virus (HCV) [3] = conditions: cited from earlier work
# cyclophilin A = cyclophilin A (Homo sapiens, UniProt P62937); conditions: cited from earlier work
# Sequence of cyclophilin A (P62937 whole entry, species assumed): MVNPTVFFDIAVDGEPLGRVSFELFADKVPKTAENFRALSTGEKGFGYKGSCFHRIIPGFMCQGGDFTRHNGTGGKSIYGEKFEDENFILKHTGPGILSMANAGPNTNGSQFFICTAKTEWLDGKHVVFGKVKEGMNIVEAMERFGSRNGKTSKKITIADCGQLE
# stimulated Jurkat cells = conditions: cited from earlier work
# cytochrome P450 1A2 = conditions: cited from earlier work
# cytochrome P450 2B6 = conditions: cited from earlier work
# calcineurin = conditions: at concentrations up to 2 μM; cited from earlier work
# cytochrome P450 3A4 = conditions: cited from earlier work
# hepatitis C virus (HCV) [4] = conditions: cited from earlier work; remark: listed apart in the source
# P-glycoprotein = P-glycoprotein (Homo sapiens, UniProt P08183); conditions: cited from earlier work
# Sequence of P-glycoprotein (P08183 whole entry): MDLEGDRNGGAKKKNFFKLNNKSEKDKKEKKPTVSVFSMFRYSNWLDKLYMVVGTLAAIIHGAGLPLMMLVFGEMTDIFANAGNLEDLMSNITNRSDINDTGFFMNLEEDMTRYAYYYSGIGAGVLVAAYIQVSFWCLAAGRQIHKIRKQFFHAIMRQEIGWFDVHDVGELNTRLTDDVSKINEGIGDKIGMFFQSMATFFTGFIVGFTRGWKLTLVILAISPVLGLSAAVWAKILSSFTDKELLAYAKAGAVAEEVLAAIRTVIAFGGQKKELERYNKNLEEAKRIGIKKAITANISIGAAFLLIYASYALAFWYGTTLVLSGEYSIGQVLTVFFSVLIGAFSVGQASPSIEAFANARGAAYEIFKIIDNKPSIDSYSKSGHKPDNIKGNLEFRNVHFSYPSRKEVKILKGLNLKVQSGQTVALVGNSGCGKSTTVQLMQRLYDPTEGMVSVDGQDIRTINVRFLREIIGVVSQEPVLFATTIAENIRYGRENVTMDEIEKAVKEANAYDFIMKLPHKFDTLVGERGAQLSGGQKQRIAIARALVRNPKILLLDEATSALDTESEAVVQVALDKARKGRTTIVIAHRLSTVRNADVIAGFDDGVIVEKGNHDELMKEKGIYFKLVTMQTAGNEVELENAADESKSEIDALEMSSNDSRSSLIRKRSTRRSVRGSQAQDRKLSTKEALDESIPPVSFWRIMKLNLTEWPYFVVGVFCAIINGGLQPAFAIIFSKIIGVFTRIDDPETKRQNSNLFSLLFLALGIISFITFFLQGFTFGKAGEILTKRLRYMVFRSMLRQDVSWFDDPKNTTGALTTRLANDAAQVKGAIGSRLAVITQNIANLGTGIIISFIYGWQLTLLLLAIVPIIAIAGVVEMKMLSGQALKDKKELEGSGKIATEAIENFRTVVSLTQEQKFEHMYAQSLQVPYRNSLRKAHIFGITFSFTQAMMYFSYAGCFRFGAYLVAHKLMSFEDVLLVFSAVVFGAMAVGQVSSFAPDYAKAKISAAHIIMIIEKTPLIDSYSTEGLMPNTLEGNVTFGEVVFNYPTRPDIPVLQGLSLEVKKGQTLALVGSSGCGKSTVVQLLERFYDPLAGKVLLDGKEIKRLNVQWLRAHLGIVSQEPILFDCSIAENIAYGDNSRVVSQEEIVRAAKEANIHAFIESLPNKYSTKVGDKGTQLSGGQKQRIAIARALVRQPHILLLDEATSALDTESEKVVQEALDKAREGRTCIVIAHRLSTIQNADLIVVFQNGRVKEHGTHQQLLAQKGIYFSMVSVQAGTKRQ
# [5] = in vivo, cited from earlier work
# [6] = test system: stimulated human peripheral blood mononuclear cells; conditions: cited from earlier work
# [7] = One-week physicochemical stability evaluation (HPLC purity); conditions: for Purity (area%) / Purity of initial (%): open, one week
# Method: Physicochemical stability of crystalline maleate was evaluated under 25° C./60% RH-open and 40° C./75% RH-open for one week.
compound,measurement,setting,value
C/C=C/C[C@@H](C)[C@@H](O)[C@H]1C(=O)N[C@@H](CC)C(=O)N(C)[C@H](SCCN(C)C)C(=O)N(C)[C@@H](CC(C)(C)O)C(=O)N[C@@H](C(C)C)C(=O)N(C)[C@@H](CC(C)C)C(=O)N[C@@H](C)C(=O)N[C@H](C)C(=O)N(C)[C@@H](CC(C)C)C(=O)N(C)[C@@H](CC(C)C)C(=O)N(C)[C@@H](C(C)C)C(=O)N1C [Freebase Type A],Solubility (S),[1]; 2 h,100 µg/mL
same,Solubility (S),[1]; 4 h,100 µg/mL
same,Solubility (S),[1]; 6 h,300 µg/mL
same,Final pH of supernatant,[1]; 2 hrs,6.7
same,Final pH of supernatant,[1]; 4 hrs,6.5
same,Final pH of supernatant,[1]; 6 hrs,6.6
same,Final pH of supernatant,[2]; 2 hrs,6.8
same,Final pH of supernatant,[2]; 4 hrs,6.8
same,Final pH of supernatant,[2]; 6 hrs,7.0
same,solubility at 2 h,physchem,3700 µg/mL
same,solubility at 4 h,physchem,4700 µg/mL
same,solubility at 6 h,physchem,5600 µg/mL
C/C=C/C[C@@H](C)[C@@H](O)[C@H]1C(=O)N[C@@H](CC)C(=O)N(C)[C@H](SCCN(C)C)C(=O)N(C)[C@@H](CC(C)(C)O)C(=O)N[C@@H](C(C)C)C(=O)N(C)[C@@H](CC(C)C)C(=O)N[C@@H](C)C(=O)N[C@H](C)C(=O)N(C)[C@@H](CC(C)C)C(=O)N(C)[C@@H](CC(C)C)C(=O)N(C)[C@@H](C(C)C)C(=O)N1C [Freebase amorphous],Final pH of supernatant,[1]; 2 hrs,4.9
same,Final pH of supernatant,[1]; 4 hrs,4.7
same,Final pH of supernatant,[1]; 6 hrs,6.2
same,Final pH of supernatant,[2]; 2 hrs,6.9
same,Final pH of supernatant,[2]; 4 hrs,6.9
same,Final pH of supernatant,[2]; 6 hrs,7.0
"C/C=C/C[C@@H](C)[C@@H](O)[C@H]1C(=O)N[C@@H](CC)C(=O)N(C)[C@H](SCCN(C)C)C(=O)N(C)[C@@H](CC(C)(C)O)C(=O)N[C@@H](C(C)C)C(=O)N(C)[C@@H](CC(C)C)C(=O)N[C@@H](C)C(=O)N[C@H](C)C(=O)N(C)[C@@H](CC(C)C)C(=O)N(C)[C@@H](CC(C)C)C(=O)N(C)[C@@H](C(C)C)C(=O)N1C [SCY-635, (3S,6S,9S,12R,15S,18S,21S,24S,27R,30S,33S)-27-((2-(dimethylamino)ethyl)thio)-30-ethyl-33-((1R,2R,E)-1-hydroxy-2-methylhex-4-en-1-yl)-24-(2-hydroxy-2-methylpropyl)-6,9,18-triisobutyl-3,21-diisopropyl-1,4,7,10,12,15,19,25,28-nonamethyl-1,4,7,10,13,16,19,22,25,28,31-undecaazacyclotritriacontan-2,5,8,11,14,17,20,23,26,29,32-undecaone]",Antiviral activity in combination,hepatitis C virus (HCV) [3]; with alpha interferon 2b,synergistic antiviral activity
same,Antiviral activity in combination,hepatitis C virus (HCV) [3]; with ribavirin,additive antiviral activity
same,Inhibition of peptidyl prolyl isomerase activity of cyclophilin A,cyclophilin A,at nanomolar concentrations
same,Inhibition of interleukin-2 secretion compared with cyclosporine,stimulated Jurkat cells,weaker inhibitor
same,Induction of cytochrome P450 1A2,cytochrome P450 1A2,did not induce
same,Induction of cytochrome P450 2B6,cytochrome P450 2B6,did not induce
same,Inhibition of calcineurin phosphatase activity,calcineurin,no detectable inhibition
same,Induction of cytochrome P450 3A4,cytochrome P450 3A4,did not induce
same,Suppression of HCV replication in vitro,hepatitis C virus (HCV) [4],potent suppression
same,P-glycoprotein inhibition,P-glycoprotein,weak inhibitor
same,P-glycoprotein substrate,P-glycoprotein,poor substrate
same,Blood and liver concentrations of parent drug versus replicon 50% effective dose,[5]; po,exceeded the 50% effective dose
same,Oral bioavailability,[5],orally bioavailable
same,Inhibition of interleukin-2 secretion compared with cyclosporine,[6],weaker inhibitor
Maleate,Purity (area%),[7]; 25° C./60% RH,100.0 area%
same,Purity of initial (%),[7]; 25° C./60% RH,100.0%
same,Purity (area%),[7]; 40° C./75% RH,100.0 area%
same,Purity of initial (%),[7]; 40° C./75% RH,100.0%
same,Chemical stability,"[7]; both 25° C./60% RH and 40° C./75% RH, at least one week",good chemical stability
same,Solubility compared with amorphous and crystalline freebase,[1],significant solubility improvement
same,Final pH of supernatant,[1]; 6 hrs,4.9
same,Solubility compared with amorphous and crystalline freebase,[2],significant solubility improvement
same,Final pH of supernatant,[2]; 6 hrs,6.0
